Test results reported in patent US20050049245A1, “Heteroaryl-ethanolamine derivatives as antiviral agents” (priority 2002, published 2005).
Like-named read-outs stand apart in the source and are kept apart here.

Key:
HCMV polymerase = target: T1, HCMV polymerase (Human cytomegalovirus, UniProt P08546); test: HCMV polymerase scintillation proximity assay (SPA); format: biochemical
T1 construct: made in house; host or cells: recombinant baculovirus-infected SF-9 cells
Method: The HCMV polymerase assay is performed using a scintillation proximity assay (SPA) as described in several references, such as N. D. Cook, et al., Pharmaceutical Manufacturing International, pages 49-53 (1992); KY Takeuchi, Laboratory Practice, September issue (1992); U.S. Pat. No. 4,568,649 (1986); which are incorporated by reference herein. Reactions are performed in 96-well plates. The assay is conducted in 100 yl volume with 5.4 mM HEPES (pH 7.5), 11.7 mM KCl, 4.5 mM MgCl2, 0.36 mg/ml BSA, and 90 nM ^3H-dTTP. Assays are run with and without CHAPS, (3-[(3-Cholamidopropyl)-dimethylammonio]-1-propane-sulfonate) at a final concentration of 2 mM. HCMV polymerase is diluted in enzyme dilution buffer containing 50% glycerol, 250 mM NaCl, 10 mM HEPES (pH 7.5), 100 μg/ml BSA, and 0.01% sodium azide. The HCMV polymerase, which is expressed in recombinant baculovirus-infected SF-9 cells and purified according to literature procedures, is added at 10% (or 10 μl) of the final reaction volume, i.e., 100 μl. Compounds are diluted in 50% DMSO and 10 μl are added to each well. Control wells contain an equivalent concentration of DMSO. Unless noted otherwise, reactions are initiated via the addition of 6 nM biotinylated poly(dA)-oligo(dT) template/primer to reaction mixtures containing the enzyme, substrate, and compounds of interest. Plates are incubated in a 25° C. or 37° C. H2O bath and terminated via the addition of 40 μl/reaction of 0.5 M EDTA (pH 8) per well. Reactions are terminated within the time-frame during which substrate incorporation is linear and varied depending upon the enzyme and conditions used, i.e., 30 min. for HCMV polymerase. Ten (10) μl of streptavidin-SPA beads (20 mg/ml in PBS/10% glycerol) are added following termination of the reaction. Plates are incubated 10 min. at 37° C., then equilibrated to room temperature, and counted on a Packard Topcount. Linear regressions are performed and IC50's are calculated using computer software.
A modified version of the above HCMV polymerase assay is performed as described above, but with the following changes: Compounds are diluted in 100% DMSO until final dilution into assay buffer. In the previous assay, compounds are diluted in 50% DMSO. 4.5 mM Dithiothreitol (DTT) is added to the polymerase buffer.
All results are listed as Polymerase IC50 ([…]) values. In Table 1, the term “n.d.” refers to activity data not determined.

HSV polymerase = HSV polymerase (Human herpesvirus 1, UniProt P04293); test: HSV polymerase assay (Table 1); format: biochemical
VZV polymerase = VZV polymerase (Varicella-zoster virus, UniProt P09252); test: VZV polymerase assay (Table 1); format: biochemical
[1] = HCMV polymerase, SPA, read-out: Polymerase IC50 HCMV
[2] = HSV polymerase, read-out: Polymerase IC50 HSV
[3] = VZV polymerase, read-out: Polymerase IC50 VZV

Sequence of HSV polymerase (P04293 whole entry): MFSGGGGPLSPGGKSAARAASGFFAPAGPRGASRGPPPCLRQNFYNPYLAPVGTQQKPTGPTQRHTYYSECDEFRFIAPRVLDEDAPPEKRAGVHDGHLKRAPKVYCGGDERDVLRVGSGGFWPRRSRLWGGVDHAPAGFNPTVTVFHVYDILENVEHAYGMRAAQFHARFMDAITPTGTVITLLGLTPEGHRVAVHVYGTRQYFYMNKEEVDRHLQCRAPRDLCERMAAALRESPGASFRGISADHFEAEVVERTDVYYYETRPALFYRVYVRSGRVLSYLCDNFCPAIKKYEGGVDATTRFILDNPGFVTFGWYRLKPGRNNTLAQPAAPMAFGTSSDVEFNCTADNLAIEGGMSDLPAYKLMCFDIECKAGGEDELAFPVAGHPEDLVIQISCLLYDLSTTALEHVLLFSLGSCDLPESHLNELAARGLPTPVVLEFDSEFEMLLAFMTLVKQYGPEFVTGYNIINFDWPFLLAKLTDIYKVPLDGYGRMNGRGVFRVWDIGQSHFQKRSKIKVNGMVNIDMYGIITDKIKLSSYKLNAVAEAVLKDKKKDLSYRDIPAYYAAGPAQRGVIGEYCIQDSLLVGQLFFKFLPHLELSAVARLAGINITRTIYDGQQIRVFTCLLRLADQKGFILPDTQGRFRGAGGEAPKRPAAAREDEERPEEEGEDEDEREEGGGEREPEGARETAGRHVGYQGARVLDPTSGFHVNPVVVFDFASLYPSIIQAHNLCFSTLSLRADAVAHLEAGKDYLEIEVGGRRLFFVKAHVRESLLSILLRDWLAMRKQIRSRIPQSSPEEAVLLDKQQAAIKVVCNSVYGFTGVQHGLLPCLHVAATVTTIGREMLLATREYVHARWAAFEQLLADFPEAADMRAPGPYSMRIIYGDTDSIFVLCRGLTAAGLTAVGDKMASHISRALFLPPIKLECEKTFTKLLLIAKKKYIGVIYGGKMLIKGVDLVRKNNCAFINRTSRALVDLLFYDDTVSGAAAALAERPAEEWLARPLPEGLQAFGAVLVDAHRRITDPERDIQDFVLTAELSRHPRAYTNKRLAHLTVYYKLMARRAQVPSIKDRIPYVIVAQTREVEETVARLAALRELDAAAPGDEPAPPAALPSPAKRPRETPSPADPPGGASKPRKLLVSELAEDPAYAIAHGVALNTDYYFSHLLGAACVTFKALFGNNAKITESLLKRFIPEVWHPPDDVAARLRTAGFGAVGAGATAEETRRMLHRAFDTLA
T1 sequence (P08546 whole entry): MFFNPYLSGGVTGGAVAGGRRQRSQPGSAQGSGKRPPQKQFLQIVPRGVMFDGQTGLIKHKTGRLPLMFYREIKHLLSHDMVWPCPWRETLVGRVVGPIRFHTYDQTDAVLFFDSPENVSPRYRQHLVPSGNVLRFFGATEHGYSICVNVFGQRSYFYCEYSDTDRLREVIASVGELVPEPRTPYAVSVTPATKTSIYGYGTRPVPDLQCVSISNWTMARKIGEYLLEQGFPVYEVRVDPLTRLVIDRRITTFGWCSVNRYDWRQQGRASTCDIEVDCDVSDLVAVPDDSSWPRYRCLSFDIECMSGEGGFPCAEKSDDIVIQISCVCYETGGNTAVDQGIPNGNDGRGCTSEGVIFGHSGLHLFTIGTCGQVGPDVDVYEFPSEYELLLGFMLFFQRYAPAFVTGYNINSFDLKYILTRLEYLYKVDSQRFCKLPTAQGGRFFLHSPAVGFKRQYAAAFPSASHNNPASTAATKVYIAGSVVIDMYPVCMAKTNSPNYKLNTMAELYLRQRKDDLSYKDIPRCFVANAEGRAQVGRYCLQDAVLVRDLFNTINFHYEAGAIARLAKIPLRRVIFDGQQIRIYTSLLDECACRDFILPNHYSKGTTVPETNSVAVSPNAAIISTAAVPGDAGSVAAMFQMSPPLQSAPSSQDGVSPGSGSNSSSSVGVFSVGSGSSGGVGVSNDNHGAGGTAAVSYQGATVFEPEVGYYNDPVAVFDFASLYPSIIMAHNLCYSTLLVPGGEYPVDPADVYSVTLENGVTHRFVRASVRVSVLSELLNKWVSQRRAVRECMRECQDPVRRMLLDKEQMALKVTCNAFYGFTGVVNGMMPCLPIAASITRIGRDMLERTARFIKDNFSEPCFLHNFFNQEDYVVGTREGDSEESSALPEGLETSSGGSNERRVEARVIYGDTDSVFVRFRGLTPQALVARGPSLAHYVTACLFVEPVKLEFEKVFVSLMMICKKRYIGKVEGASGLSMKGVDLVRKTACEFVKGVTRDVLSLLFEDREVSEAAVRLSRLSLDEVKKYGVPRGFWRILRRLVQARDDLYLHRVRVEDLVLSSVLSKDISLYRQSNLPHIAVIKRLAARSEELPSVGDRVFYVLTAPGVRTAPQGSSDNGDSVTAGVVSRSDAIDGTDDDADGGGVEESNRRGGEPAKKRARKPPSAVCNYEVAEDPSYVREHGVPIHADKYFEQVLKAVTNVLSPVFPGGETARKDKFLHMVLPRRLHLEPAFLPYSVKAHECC
Sequence of VZV polymerase (P09252 whole entry): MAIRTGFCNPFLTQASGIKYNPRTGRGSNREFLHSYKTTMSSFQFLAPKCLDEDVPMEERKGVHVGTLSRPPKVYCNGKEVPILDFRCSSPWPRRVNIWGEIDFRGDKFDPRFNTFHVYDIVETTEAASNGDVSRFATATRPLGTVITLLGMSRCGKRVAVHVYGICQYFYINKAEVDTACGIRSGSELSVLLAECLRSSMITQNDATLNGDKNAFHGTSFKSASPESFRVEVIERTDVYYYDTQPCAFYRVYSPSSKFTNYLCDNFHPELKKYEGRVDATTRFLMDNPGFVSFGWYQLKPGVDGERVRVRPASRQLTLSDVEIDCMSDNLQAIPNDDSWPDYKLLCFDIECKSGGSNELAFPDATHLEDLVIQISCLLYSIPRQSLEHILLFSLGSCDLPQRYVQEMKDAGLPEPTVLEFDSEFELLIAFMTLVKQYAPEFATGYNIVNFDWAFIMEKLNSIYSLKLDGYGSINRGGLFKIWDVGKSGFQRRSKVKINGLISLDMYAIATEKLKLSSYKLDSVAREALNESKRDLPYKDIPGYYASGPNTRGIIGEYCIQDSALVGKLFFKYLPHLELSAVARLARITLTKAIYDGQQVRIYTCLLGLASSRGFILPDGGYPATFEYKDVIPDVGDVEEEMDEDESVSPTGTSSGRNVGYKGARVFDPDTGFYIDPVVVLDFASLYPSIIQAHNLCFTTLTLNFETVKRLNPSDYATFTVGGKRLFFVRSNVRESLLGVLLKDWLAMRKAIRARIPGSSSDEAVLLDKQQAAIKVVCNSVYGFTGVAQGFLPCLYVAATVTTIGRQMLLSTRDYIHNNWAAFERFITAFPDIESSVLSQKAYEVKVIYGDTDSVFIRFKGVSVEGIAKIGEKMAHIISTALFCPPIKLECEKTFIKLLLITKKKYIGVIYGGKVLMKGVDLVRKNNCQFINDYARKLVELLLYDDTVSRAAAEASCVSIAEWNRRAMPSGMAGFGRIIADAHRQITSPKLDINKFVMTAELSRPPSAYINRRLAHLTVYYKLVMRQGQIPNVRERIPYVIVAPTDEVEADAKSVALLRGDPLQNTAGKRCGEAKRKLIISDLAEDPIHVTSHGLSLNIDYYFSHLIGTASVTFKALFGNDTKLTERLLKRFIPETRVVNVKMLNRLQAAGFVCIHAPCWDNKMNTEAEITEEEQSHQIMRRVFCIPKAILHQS

CN(Cc1cc2c(=O)c(C(=O)NCc3ccc(Cl)cc3)cn(C)c2s1)CC(O)c1ccco1 (racemic) [Example 1, rac-N-(4-Chlorobenzyl)-2-(((2-(2-furyl)-2-hydroxyethyl)(methyl)amino)methyl)-7-methyl-4-oxo-4,7-dihydrothieno[2,3-b]pyridine-5-carboxamide]
IC50 (HCMV polymerase; [1]): 80 nM
IC50 (HSV polymerase; [2]): 220 nM
IC50 (VZV polymerase; [3]): 60 nM

CN(Cc1cc2c(=O)c(C(=O)NCc3ccc(Cl)cc3)cn(C)c2s1)CC(O)c1cccs1 (racemic) [Example 6, rac-N-(4-Chlorobenzyl)-2-(((2-hydroxy-2-thien-2-ylethyl)(methyl)amino)methyl)-7-methyl-4-oxo-4,7-dihydrothieno[2,3-b]pyridine-5-carboxamide]
IC50 (HCMV polymerase; [1]): 170 nM
IC50 (HSV polymerase; [2]): 470 nM
IC50 (VZV polymerase; [3]): 150 nM

CN(Cc1cc2c(=O)c(C(=O)NCc3ccc(Cl)cc3)cn(C)c2s1)CC(O)c1cn(C)cn1 (racemic) [Example 9, rac-N-(4-Chlorobenzyl)-2-(((2-hydroxy-2-(1-methyl-1H-imidazol-4-yl)ethyl) (methyl)amino)methyl)-7-methyl-4-oxo-4,7-dihydrothieno[2,3-b]pyridine-5-carboxamide]
IC50 (HCMV polymerase; [1]): 1060 nM
melting point: 124 to 130 °C

CN(Cc1cc2c(=O)c(C(=O)NCc3ccc(Cl)cc3)cn(C)c2s1)CC(O)c1nc2ccccc2s1 (racemic) [Example 17, rac-2-(((2-(1,3-Benzothiazol-2-yl)-2-hydroxyethyl)(methyl)amino)methyl)-N-(4-chlorobenzyl)-7-methyl-4-oxo-4,7-dihydrothieno[2,3-b]pyridine-5-carboxamide]
IC50 (HCMV polymerase; [1]): 120 nM
IC50 (HSV polymerase; [2]): 390 nM
IC50 (VZV polymerase; [3]): 110 nM

CCn1cc(C(=O)NCc2ccc(Cl)cc2)c(=O)c2cc(CN(C)CC(O)c3cc4ccccc4o3)sc21 (racemic) [Example 22, rac-2-(((2-(1-Benzofuran-2-yl)-2-hydroxyethyl)(methyl)amino)methyl)-N-(4-chlorobenzyl)-7-ethyl-4-oxo-4,7-dihydrothieno[2,3-b]pyridine-5-carboxamide]
IC50 (HCMV polymerase; [1]): 90 nM
IC50 (HSV polymerase; [2]): 170 nM
IC50 (VZV polymerase; [3]): 80 nM

CCCn1cc(C(=O)NCc2ccc(Cl)cc2)c(=O)c2cc(CN(C)CC(O)c3cc4ccccc4o3)sc21 (racemic) [Example 23, rac-2-(((2-(1-Benzofuran-2-yl)-2-hydroxyethyl)(methyl)amino)methyl)-N-(4-chlorobenzyl)-7-propyl-4-oxo-4,7-dihydrothieno[2,3-b]pyridine-5-carboxamide]
IC50 (HCMV polymerase; [1]): 260 nM

CN(Cc1cc2c(=O)c(C(=O)NCc3ccc(Cl)cc3)cn(CC(O)CO)c2s1)CC(O)c1cc2ccccc2o1 (racemic) [Example 25, rac-2-(((2-(1-Benzofuran-2-yl)-2-hydroxyethyl)(methyl)amino)methyl)-N-(4-chlorobenzyl)-7-(2,3-dihydroxypropyl)-4-oxo-4,7-dihydrothieno[2,3-b]pyridine-5-carboxamide]
IC50 (HCMV polymerase; [1]): 1800 nM

CN(Cc1cc2c(=O)c(C(=O)NCc3ccc(Cl)cc3)cn(CCCO)c2s1)CC(O)c1cc2ccccc2o1 (racemic) [Example 28, rac-2-(((2-(1-Benzofuran-2-yl)-2-hydroxyethyl)(methyl)amino)methyl)-N-(4-chlorobenzyl)-7-(3-hydroxypropyl)-4-oxo-4,7-dihydrothieno[2,3-b]pyridine-5-carboxamide]
IC50 (HCMV polymerase): 300 nM

CN(Cc1cc2c(=O)c(C(=O)NCc3ccc(Cl)cc3)cn(CCO)c2s1)CC(O)c1cc2ccccc2o1 (racemic) [Example 29, rac-2-(((2-(1-Benzofuran-2-yl)-2-hydroxyethyl)(methyl)amino)methyl)-N-(4-chlorobenzyl)-7-(2-hydroxyethyl)-4-oxo-4,7-dihydrothieno[2,3-b]pyridine-5-carboxamide]
IC50 (HCMV polymerase; [1]): 600 nM

CN(Cc1cc2c(=O)c(C(=O)NCc3ccc(Cl)cc3)cn(C)c2s1)C[C@@H](O)c1ccn[nH]1 (single isomer, unassigned) [Example 19]
IC50 (HCMV polymerase; [1]): 210 nM
IC50 (HSV polymerase; [2]): 780 nM
IC50 (VZV polymerase; [3]): 290 nM

CN(Cc1cc2c(=O)c(C(=O)NCc3ccc(Cl)cc3)cn(C)c2s1)C[C@@H](O)c1ccco1 [Example 2, (+)—N-(4-Chlorobenzyl)-2-((((R)-2-(2-furyl)-2-hydroxyethyl)(methyl)amino)-methyl)-7-methyl-4-oxo-4,7-dihydrothieno [2,3-b]pyridine-5-carboxamide]
IC50 (HCMV polymerase; [1]): 40 nM
IC50 (HSV polymerase; [2]): 90 nM
IC50 (VZV polymerase; [3]): 30 nM

COCCn1cc(C(=O)NCc2ccc(Cl)cc2)c(=O)c2cc(CN(C)C[C@@H](O)c3ccco3)sc21 [Example 21, N-(4-Chlorobenzyl)-2-((((2R)-2-(2-furyl)-2-hydroxyethyl)(methyl)amino)methyl)-7-(2-methoxyethyl)-4-oxo-4,7-dihydrothieno[2,3-b]pyridine-5-carboxamide]
IC50 (HCMV polymerase; [1]): 350 nM

CN(Cc1cc2c(=O)c(C(=O)NCc3ccc(Cl)cc3)cn(CC(O)CO)c2s1)C[C@@H](O)c1ccco1 (stereo partly drawn) [Example 26, N-(4-Chlorobenzyl)-7-(2,3-dihydroxypropyl)-2-((((2R)-2-(2-furyl)-2-hydroxy-ethyl)(methyl)amino)methyl)-4-oxo-4,7-dihydrothieno[2,3-b]pyridine-5-carboxamide]
IC50 (HCMV polymerase; [1]): 150 nM
IC50 (HSV polymerase; [2]): 540 nM
IC50 (VZV polymerase; [3]): 330 nM

CN(Cc1cc2c(=O)c(C(=O)NCc3ccc(Cl)cc3)cn(CCCO)c2s1)C[C@@H](O)c1ccco1 [Example 27, N-(4-Chlorobenzyl)-2-((((2R)-2-(2-furyl)-2-hydroxyethyl)(methyl)amino)methyl)-7-(3-hydroxypropyl)-4-oxo-4,7-dihydrothieno[2,3-b]pyridine-5-carboxamide]
IC50 (HCMV polymerase): 360 nM
IC50 (HSV polymerase): 590 nM
IC50 (VZV polymerase): 280 nM

CCCn1cc(C(=O)NCc2ccc(Cl)cc2)c(=O)c2cc(CN(C)C[C@@H](O)c3ccco3)sc21 [Example 32, N-(4-Chlorobenzyl)-2-((((2R)-2-(2-furyl)-2-hydroxyethyl)(methyl)amino)methyl)-4-oxo-7-propyl-4,7-dihydrothieno[2,3-b]pyridine-5-carboxamide]
IC50 (HCMV polymerase; [1]): 180 nM
IC50 (HSV polymerase; [2]): 740 nM
IC50 (VZV polymerase; [3]): 220 nM

CN(Cc1cc2c(=O)c(C(=O)NCc3ccc(Cl)cc3)cn(C)c2s1)CC(O)c1ccc(Cl)o1 (stereo not shown) [Example 33, N-(4-Chlorobenzyl)-2-(((2-(5-chloro-2-furyl)-2-hydroxyethyl)(methyl)amino)-methyl)-7-methyl-4-oxo-4,7-dihydrothieno[2,3-b]pyridine-5-carboxamide]
IC50 (HCMV polymerase; [1]): 20 nM
IC50 (HSV polymerase; [2]): 80 nM

CN(Cc1cc2c(=O)c(C(=O)NCc3ccc(Cl)cc3)cn(CCO)c2s1)C[C@@H](O)c1ccco1 [Example 34, N-(4-Chlorobenzyl)-2-((((2R)-2-(2-furyl)-2-hydroxyethyl)(methyl)amino)methyl)-7-(2-hydroxyethyl)-4-oxo-4,7-dihydrothieno[2,3-b]pyridine-5-carboxamide]
IC50 (HCMV polymerase; [1]): 240 nM
IC50 (HSV polymerase; [2]): 1080 nM
IC50 (VZV polymerase; [3]): 340 nM

CN(Cc1cc2c(=O)c(C(=O)NCc3ccc(Cl)cc3)cn(CCOCCO)c2s1)C[C@@H](O)c1ccco1 [Example 35, N-(4-Chlorobenzyl)-2-((((2R)-2-(2-furyl)-2-hydroxyethyl)(methyl)amino)methyl)-7-(2-(2-hydroxyethoxy)ethyl)-4-oxo-4,7-dihydrothieno[2,3-b]pyridine-5-carboxamide]
IC50 (HCMV polymerase; [1]): 560 nM
